Results from the supplement of paper PMC10307832.

What was measured:
Experiment in all cases: relative viability (nuclei count vs DMSO), 5 days (fraction); higher = more cells survive
COR-L23 = tested on: COR-L23
Method in brief: (§1)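 Each reported value is a median over duplicate plates. It expresses relative viability: treated-well nuclei count divided by vehicle-well nuclei count. Lung cancer cell lines in 1536-well plates were dosed by pin tool a day after seeding, alone with one drug or with a fixed anchor-drug dose plus five library-drug doses (not always all listed) in √10 steps, and nuclei were counted after 5 days.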

COR-L 105 = tested on: COR-L 105
Method in brief: as §1

NCI-H596 = tested on: NCI-H596
Method in brief: as §1

LCLC-103H = tested on: LCLC-103H
Method in brief: as §1

NCI-H1651 = tested on: NCI-H1651
Method in brief: as §1

SK-MES-1 = tested on: SK-MES-1
Method in brief: as §1

NCI-H1975 = tested on: NCI-H1975
Method in brief: as §1

PC-14 = tested on: PC-14
Method in brief: as §1

NCI-H2023 = tested on: NCI-H2023
Method in brief: as §1

NCI-H650 = tested on: NCI-H650
Method in brief: as §1

EPLC-272H = tested on: EPLC-272H
Method in brief: as §1

NCI-H1395 = tested on: NCI-H1395
Method in brief: as §1

CAL-12T = tested on: CAL-12T
Method in brief: as §1

NCI-H1993 = tested on: NCI-H1993
Method in brief: as §1

NCI-H2170 = tested on: NCI-H2170
Method in brief: as §1

HOP-62 = tested on: HOP-62
Method in brief: as §1

NCI-H2085 = tested on: NCI-H2085
Method in brief: as §1

A-427 = tested on: A-427
Method in brief: as §1

LXF-289 = tested on: LXF-289
Method in brief: as §1

NCI-H3122 = tested on: NCI-H3122
Method in brief: as §1

NCI-H2087 = tested on: NCI-H2087
Method in brief: as §1

NCI-H647 = tested on: NCI-H647
Method in brief: as §1

RERF-LC-KJ = tested on: RERF-LC-KJ
Method in brief: as §1

O=C(O)CCCCC(CCSCc1ccccc1)SCc1ccccc1 (stereo not given) [CPI-613] + CC(=O)Nc1cccc(-n2c(=O)n(C3CC3)c(=O)c3c(Nc4ccc(I)cc4F)n(C)c(=O)c(C)c32)c1 [Trametinib] (partner 0.02 µM)
relative viability (COR-L23; first compound 5 µM): 0.651 | relative viability (COR-L23; first compound 15.81 µM): 0.524 | relative viability (COR-L23; first compound 50 µM): 0.63 | relative viability (COR-L23; first compound 158.11 µM): 0.198 | relative viability (COR-L23; first compound 500 µM): 0.0522 | relative viability (COR-L 105; first compound 5 µM): 0.459 | relative viability (COR-L 105; first compound 15.81 µM): 0.437 | relative viability (COR-L 105; first compound 50 µM): 0.479 | relative viability (COR-L 105; first compound 158.11 µM): 0.355 | relative viability (COR-L 105; first compound 500 µM): 0.225 | relative viability (NCI-H596; first compound 5 µM): 0.823 | relative viability (NCI-H596; first compound 15.81 µM): 0.732 | relative viability (NCI-H596; first compound 50 µM): 0.765 | relative viability (NCI-H596; first compound 158.11 µM): 0.34 | relative viability (NCI-H596; first compound 500 µM): 0.036 | relative viability (LCLC-103H; first compound 5 µM): 0.67 | relative viability (LCLC-103H; first compound 15.81 µM): 0.662 | relative viability (LCLC-103H; first compound 50 µM): 0.727 | relative viability (LCLC-103H; first compound 158.11 µM): 0.422 | relative viability (LCLC-103H; first compound 500 µM): 0.372 | relative viability (NCI-H1651; first compound 5 µM): 0.771 | relative viability (NCI-H1651; first compound 15.81 µM): 0.771 | relative viability (NCI-H1651; first compound 50 µM): 0.848 | relative viability (NCI-H1651; first compound 158.11 µM): 0.783 | relative viability (NCI-H1651; first compound 500 µM): 0.765 | relative viability (SK-MES-1; first compound 5 µM): 0.534 | relative viability (SK-MES-1; first compound 15.81 µM): 0.49 | relative viability (SK-MES-1; first compound 50 µM): 0.523 | relative viability (SK-MES-1; first compound 158.11 µM): 0.201 | relative viability (SK-MES-1; first compound 500 µM): 0.132 | relative viability (NCI-H1975; first compound 5 µM): 0.395 | relative viability (NCI-H1975; first compound 15.81 µM): 0.355 | relative viability (NCI-H1975; first compound 50 µM): 0.272 | relative viability (NCI-H1975; first compound 158.11 µM): 0.348 | relative viability (NCI-H1975; first compound 500 µM): 0.0712 | relative viability (PC-14; first compound 5 µM): 0.651 | relative viability (PC-14; first compound 15.81 µM): 0.549 | relative viability (PC-14; first compound 50 µM): 0.72 | relative viability (PC-14; first compound 158.11 µM): 0.108 | relative viability (PC-14; first compound 500 µM): 0.0098 | relative viability (NCI-H2023; first compound 5 µM): 0.57 | relative viability (NCI-H2023; first compound 15.81 µM): 0.605 | relative viability (NCI-H2023; first compound 50 µM): 0.499 | relative viability (NCI-H2023; first compound 158.11 µM): 0.0445 | relative viability (NCI-H2023; first compound 500 µM): 0.0048 | relative viability (NCI-H650; first compound 5 µM): 0.969 | relative viability (NCI-H650; first compound 15.81 µM): 0.994 | relative viability (NCI-H650; first compound 50 µM): 0.849 | relative viability (NCI-H650; first compound 158.11 µM): 0.929 | relative viability (NCI-H650; first compound 500 µM): 0.889 | relative viability (EPLC-272H; first compound 5 µM): 0.233 | relative viability (EPLC-272H; first compound 15.81 µM): 0.232 | relative viability (EPLC-272H; first compound 50 µM): 0.29 | relative viability (EPLC-272H; first compound 158.11 µM): 0.222 | relative viability (EPLC-272H; first compound 500 µM): 0.268 | relative viability (NCI-H1395; first compound 5 µM): 0.901 | relative viability (NCI-H1395; first compound 15.81 µM): 1.05 | relative viability (NCI-H1395; first compound 50 µM): 0.928 | relative viability (NCI-H1395; first compound 158.11 µM): 1.04 | relative viability (NCI-H1395; first compound 500 µM): 0.917 | relative viability (CAL-12T; first compound 5 µM): 0.286 | relative viability (CAL-12T; first compound 15.81 µM): 0.309 | relative viability (CAL-12T; first compound 50 µM): 0.325 | relative viability (CAL-12T; first compound 158.11 µM): 0.0954 | relative viability (CAL-12T; first compound 500 µM): 0.038 | relative viability (NCI-H1993; first compound 5 µM): 0.466 | relative viability (NCI-H1993; first compound 15.81 µM): 0.456 | relative viability (NCI-H1993; first compound 50 µM): 0.528 | relative viability (NCI-H1993; first compound 158.11 µM): 0.51 | relative viability (NCI-H1993; first compound 500 µM): 0.291 | relative viability (NCI-H2170; first compound 5 µM): 0.95 | relative viability (NCI-H2170; first compound 15.81 µM): 0.968 | relative viability (NCI-H2170; first compound 50 µM): 0.892 | relative viability (NCI-H2170; first compound 158.11 µM): 0.686 | relative viability (NCI-H2170; first compound 500 µM): 0.546 | relative viability (HOP-62; first compound 5 µM): 0.394 | relative viability (HOP-62; first compound 15.81 µM): 0.402 | relative viability (HOP-62; first compound 50 µM): 0.351 | relative viability (HOP-62; first compound 158.11 µM): 0.267 | relative viability (HOP-62; first compound 500 µM): 0.129 | relative viability (NCI-H2085; first compound 5 µM): 0.664 | relative viability (NCI-H2085; first compound 15.81 µM): 0.555 | relative viability (NCI-H2085; first compound 50 µM): 0.6 | relative viability (NCI-H2085; first compound 158.11 µM): 0.216 | relative viability (NCI-H2085; first compound 500 µM): 0.12 | relative viability (A-427; first compound 5 µM): 0.716 | relative viability (A-427; first compound 15.81 µM): 0.766 | relative viability (A-427; first compound 50 µM): 0.682 | relative viability (A-427; first compound 158.11 µM): 0.476 | relative viability (A-427; first compound 500 µM): 0.391 | relative viability (LXF-289; first compound 5 µM): 0.653 | relative viability (LXF-289; first compound 15.81 µM): 0.659 | relative viability (LXF-289; first compound 50 µM): 0.665 | relative viability (LXF-289; first compound 158.11 µM): 0.446 | relative viability (LXF-289; first compound 500 µM): 0.572 | relative viability (NCI-H3122; first compound 5 µM): 0.232 | relative viability (NCI-H3122; first compound 15.81 µM): 0.25 | relative viability (NCI-H3122; first compound 50 µM): 0.295 | relative viability (NCI-H3122; first compound 158.11 µM): 0.215 | relative viability (NCI-H3122; first compound 500 µM): 0.227 | relative viability (NCI-H2087; first compound 5 µM): 0.207 | relative viability (NCI-H2087; first compound 15.81 µM): 0.16 | relative viability (NCI-H2087; first compound 50 µM): 0.159 | relative viability (NCI-H2087; first compound 158.11 µM): 0.0653 | relative viability (NCI-H2087; first compound 500 µM): 0.003 | relative viability (NCI-H647; first compound 5 µM): 0.378 | relative viability (NCI-H647; first compound 15.81 µM): 0.388 | relative viability (NCI-H647; first compound 50 µM): 0.38 | relative viability (NCI-H647; first compound 158.11 µM): 0.0824 | relative viability (NCI-H647; first compound 500 µM): 0.0504 | relative viability (RERF-LC-KJ; first compound 5 µM): 0.76 | relative viability (RERF-LC-KJ; first compound 15.81 µM): 0.878 | relative viability (RERF-LC-KJ; first compound 50 µM): 0.845 | relative viability (RERF-LC-KJ; first compound 158.11 µM): 0.458 | relative viability (RERF-LC-KJ; first compound 500 µM): 0.44
